Data taken from PMC8409585 (The Journal of Clinical Investigation, 2021).

Molecular target: T1, mitochondrial electron transport chain complex I (ETCC1), NADH ubiquinone oxidoreductase (Bos taurus, UniProt P03887+P17694+P42026)
T1 construct: gene MT-ND1

Compound: C=C(C)[C@@H]1C[C@@]2(C)C(=CC1=O)CC[C@@H](OC(=O)/C(C)=C\C)[C@@H]2C [PT, petasin]
- IC50: 3.55 µM
